Assay [1] concerns the target T1, ErbB2 (Homo sapiens, UniProt P04626).
T1 construct: made in house; host or cells: baculovirus expression system
The experiment in a line: ErbB-2 substrate phosphorylation assay (HTRF). The assay is classed as biochemical. The procedure, abridged: (§1)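 Baculovirus-expressed EGFR (0.8 nM) or ErbB2 (10 nM) in enzyme mix, preincubated 1 h at 20 °C with compound (0.00027–47.6 μM final), then 90 min at 20 °C with substrate mix of 20 μM ATP, 0.8 uM biotinylated Peptide C, MnCl2, MOPS pH 7.5. Phosphotyrosine by HTRF; pIC50 reported.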
A general note: In TR-FRET formats the signal depends on donor and acceptor labels being close together.

The target in assay [2] is T2, EGFR (Homo sapiens, UniProt P00533).
T2 construct: made in house; host or cells: baculovirus expression system
T2 sequence (P00533 25-1210): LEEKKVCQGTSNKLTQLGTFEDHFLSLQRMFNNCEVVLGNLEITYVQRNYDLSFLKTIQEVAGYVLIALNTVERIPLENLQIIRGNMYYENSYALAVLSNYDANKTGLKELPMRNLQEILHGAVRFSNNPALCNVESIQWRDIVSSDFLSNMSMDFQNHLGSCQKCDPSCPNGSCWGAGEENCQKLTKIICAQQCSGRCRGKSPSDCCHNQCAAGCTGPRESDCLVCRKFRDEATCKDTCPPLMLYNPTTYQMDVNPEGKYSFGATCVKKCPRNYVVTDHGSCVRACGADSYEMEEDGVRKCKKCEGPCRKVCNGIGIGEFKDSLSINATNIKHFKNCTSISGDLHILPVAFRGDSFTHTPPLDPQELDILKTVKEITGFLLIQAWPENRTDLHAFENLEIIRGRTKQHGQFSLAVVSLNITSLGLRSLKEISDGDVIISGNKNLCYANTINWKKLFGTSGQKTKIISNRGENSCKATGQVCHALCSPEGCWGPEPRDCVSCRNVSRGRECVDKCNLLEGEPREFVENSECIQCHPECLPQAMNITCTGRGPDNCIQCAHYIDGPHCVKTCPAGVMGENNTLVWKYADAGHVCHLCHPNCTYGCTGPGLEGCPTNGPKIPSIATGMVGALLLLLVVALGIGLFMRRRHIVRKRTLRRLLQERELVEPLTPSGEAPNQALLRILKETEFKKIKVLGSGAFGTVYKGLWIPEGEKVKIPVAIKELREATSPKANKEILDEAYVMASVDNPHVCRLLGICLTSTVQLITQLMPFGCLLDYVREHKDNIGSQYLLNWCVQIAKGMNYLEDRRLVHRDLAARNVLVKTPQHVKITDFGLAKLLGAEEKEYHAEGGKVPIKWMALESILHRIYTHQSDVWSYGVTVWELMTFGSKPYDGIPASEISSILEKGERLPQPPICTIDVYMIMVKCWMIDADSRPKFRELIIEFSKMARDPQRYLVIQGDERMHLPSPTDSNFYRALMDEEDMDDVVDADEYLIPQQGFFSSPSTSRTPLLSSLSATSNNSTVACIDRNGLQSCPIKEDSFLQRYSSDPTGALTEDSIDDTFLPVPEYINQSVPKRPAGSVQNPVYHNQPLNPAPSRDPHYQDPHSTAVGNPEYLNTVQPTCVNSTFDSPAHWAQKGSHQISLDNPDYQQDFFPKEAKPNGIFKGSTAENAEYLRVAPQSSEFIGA
The experiment in a line: EGFR substrate phosphorylation assay (HTRF). The assay is classed as biochemical. In a few lines:
as §1

In US20110319392A1, “Thiazole Sulfonamide And Oxazole Sulfonamide Kinase Inhibitors” (priority 2009, published 2011) one finds IC50 data, which are given here for 13 compounds.

Where a name gives a salt, the structure may show the parent alone.

T1 sequence (P04626 23-1255): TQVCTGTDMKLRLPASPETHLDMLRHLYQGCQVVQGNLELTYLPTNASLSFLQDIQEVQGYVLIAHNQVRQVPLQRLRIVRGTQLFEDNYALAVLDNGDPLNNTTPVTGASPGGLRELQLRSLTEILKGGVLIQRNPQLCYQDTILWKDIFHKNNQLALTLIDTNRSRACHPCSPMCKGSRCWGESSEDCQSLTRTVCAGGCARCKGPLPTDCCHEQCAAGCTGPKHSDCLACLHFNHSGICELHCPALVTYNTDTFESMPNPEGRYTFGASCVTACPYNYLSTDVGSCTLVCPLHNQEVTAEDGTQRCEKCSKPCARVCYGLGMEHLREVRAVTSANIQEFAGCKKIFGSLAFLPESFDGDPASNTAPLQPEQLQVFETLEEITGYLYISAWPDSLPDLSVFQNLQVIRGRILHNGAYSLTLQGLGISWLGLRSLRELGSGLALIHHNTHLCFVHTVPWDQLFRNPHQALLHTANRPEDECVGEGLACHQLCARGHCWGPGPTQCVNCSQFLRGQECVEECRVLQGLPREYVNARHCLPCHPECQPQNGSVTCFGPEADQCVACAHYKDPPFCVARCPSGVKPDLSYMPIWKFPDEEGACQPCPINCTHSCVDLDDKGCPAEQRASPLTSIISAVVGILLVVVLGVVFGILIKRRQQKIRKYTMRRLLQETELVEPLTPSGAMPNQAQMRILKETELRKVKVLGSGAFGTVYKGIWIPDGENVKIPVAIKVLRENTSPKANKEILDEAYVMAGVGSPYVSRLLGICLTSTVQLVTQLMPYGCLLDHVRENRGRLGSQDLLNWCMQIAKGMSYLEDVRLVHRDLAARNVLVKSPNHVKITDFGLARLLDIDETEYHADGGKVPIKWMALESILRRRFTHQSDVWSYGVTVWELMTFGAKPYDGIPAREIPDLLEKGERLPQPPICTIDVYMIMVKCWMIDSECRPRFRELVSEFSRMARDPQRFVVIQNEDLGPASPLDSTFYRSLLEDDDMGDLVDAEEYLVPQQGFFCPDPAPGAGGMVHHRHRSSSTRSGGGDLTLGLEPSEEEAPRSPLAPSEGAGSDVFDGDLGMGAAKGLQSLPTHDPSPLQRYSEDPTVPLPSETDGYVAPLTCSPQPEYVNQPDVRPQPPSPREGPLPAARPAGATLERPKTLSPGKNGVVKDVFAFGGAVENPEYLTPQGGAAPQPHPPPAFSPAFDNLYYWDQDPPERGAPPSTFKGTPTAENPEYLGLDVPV

As for `CC(=O)N1CCN(c2ccc(Nc3nccc(-c4sc(C(C)C)nc4-c4cccc(NS(=O)(=O)c5ccc(F)cc5)c4)n3)cn2)CC1` [Example 10, N-{3-[5-(2-{[6-(4-Acetyl-1-piperazinyl)-3-pyridinyl]amino}-4-pyrimidinyl)-2-(1-methylethyl)-1,3-thiazol-4-yl]phenyl}-4-fluorobenzenesulfonamide], the IC50 in assay [1] and in assay [2] was more than 1000 nM in each case.

In the case of `CN(C)c1nc(-c2ccc(F)c(NS(=O)(=O)c3c(F)cccc3F)c2)c(-c2ccnc(Nc3ccc(N4CCN(S(C)(=O)=O)CC4)nc3)n2)s1` [Example 112], the IC50 in assay [1] and in assay [2] was 100 to 1000 nM each time.

For the compound `CC(C)c1nc(-c2cccc(NS(=O)(=O)c3c(F)cccc3F)c2)c(-c2ccnc(Nc3ccc(N4CCN(CCS(C)(=O)=O)CC4)c(F)c3)n2)s1` [Example 16, 2,6-Difluoro-N-{3-[5-{2-[(3-fluoro-4-{4-[2-(methylsulfonyl)ethyl]-1-piperazinyl}phenyl)amino]-4-pyrimidinyl}-2-(1-methylethyl)-1,3-thiazol-4-yl]ohenyl}benzenesulfonamide hydrochloride], the half-maximal inhibitory concentration (IC50) in assay [1] and in assay [2] was 100 to 1000 nM in each case.

Regarding `COc1cc(N2CCC(N3CCN(CCS(C)(=O)=O)CC3)CC2)ccc1Nc1nccc(-c2sc(C(C)C)nc2-c2cccc(NS(=O)(=O)c3c(F)cccc3F)c2)n1` [Example 20, 2,6-Difluoro-N-{3-[2-(1-methylethyl)-5-(2-{[2-(methyloxy)-4-(4-{4-[2-(methylsulfonyl)ethyl]-1-piperazinyl}-1-piperidinyl)phenyl]amino}-4-pyrimidinyl)-1,3-thiazol-4-yl]phenyl}benzenesulfonamide], the IC50 in assay [1] and in assay [2] was less than 100 nM throughout.

On to `CS(=O)(=O)c1cccc(Nc2nccc(-c3sc(N4CCOCC4)nc3-c3cccc(NS(=O)(=O)c4c(F)cccc4F)c3Cl)n2)c1` [Example 145], for which the concentration for half-maximal inhibition (IC50) in assay [1] and in assay [2] was more than 1000 nM each time.

Regarding `CC(C)c1nc(-c2ccc(F)c(NS(=O)(=O)c3c(F)cccc3F)c2)c(-c2ccnc(Nc3ccc(N4CCN5CCOC[C@H]5C4)nc3)n2)s1` [Example 97], the half-inhibitory concentration (IC50) in assay [1] and in assay [2] was 100 to 1000 nM in each case.

Turning to `CC(C)c1nc(-c2ccc(F)c(NS(=O)(=O)c3c(F)cccc3F)c2)c(-c2ccnc(Nc3ccc(N4CCOCC4)nc3)n2)s1` [Example 23, 2,6-Difluoro-N-{2-fluoro-5-[2-(1-methylethyl)-5-(2-{[6-(4-morpholinyl)-3-pyridinyl]amino}-4-pyrimidinyl)-1,3-thiazol-4-yl]phenyl}benzenesulfonamide], the IC50 in assay [1] and in assay [2] was 100 to 1000 nM in each case.

On to `COc1cc(N2CCN(CCS(C)(=O)=O)CC2)c(C)cc1Nc1nccc(-c2sc(C(C)C)nc2-c2cccc(NS(=O)(=O)c3c(F)cccc3F)c2)n1` [Example 19], for which the IC50 in assay [1] and in assay [2] was less than 100 nM throughout.

For the compound `CC(C)c1nc(-c2ccc(F)c(NS(=O)(=O)c3c(F)cccc3F)c2)c(-c2ccnc(Nc3cccc(CCS(N)(=O)=O)c3)n2)s1` [Example 113], the IC50 (usually the concentration needed to halve the response being measured) was less than 100 nM in assay [1] and 100 to 1000 nM in assay [2].

For `CCNc1nc(-c2cccc(NS(=O)(=O)c3c(F)cccc3F)c2)c(-c2ccnc(Nc3ccc(N4CCOCC4)nc3)n2)s1` [Example 152], the IC50 in assay [1] and in assay [2] was 100 to 1000 nM throughout.

Regarding `COc1ccc(S(=O)(=O)Nc2cccc(-c3nc(C(C)C)sc3-c3ccnc(Nc4ccc(N5CCOCC5)nc4)n3)c2)cn1` [Example 49], the half-inhibitory concentration (IC50) in assay [1] and in assay [2] was more than 1000 nM in each case.

Take `CS(=O)(=O)CCN1CCN(c2ccc(Nc3nccc(-c4oc(N5CCCC5)nc4-c4ccc(F)c(NS(=O)(=O)c5c(F)cccc5F)c4)n3)cc2F)CC1` [Example 119]: the IC50 is 100 to 1000 nM in assay [1] and more than 1000 nM in assay [2].

As for `CC(C)c1nc(-c2ccnc(NS(=O)(=O)c3c(F)cccc3F)c2)c(-c2ccnc(Nc3cnc(N4CCOCC4)c(F)c3)n2)s1` [Example 33], the IC50 in assay [1] and in assay [2] was more than 1000 nM in each case.
